Test results reported in ChEMBL document CHEMBL1155949, “Blockade of glucocorticoid excess at the tissue level: inhibitors of 11beta-hydroxysteroid dehydrogenase type 1 as a therapy for type 2 diabetes” (J Med Chem, 2008).

What was measured:
[1] = Inhibition of cynomolgus monkey 11beta-HSD1 mediated conversion of prednisone to prednisolone; set-up: species or system Macaca fascicularis
[2] = system: Corticosteroid 11-beta-dehydrogenase isozyme 2 (Homo sapiens); assay: Inhibition of 11beta-HSD2 in human SW620 cells at 10 uM; settings: SW-620

| SMILES | Ki [1] [nM] | inhibition [2] [%] |
| --- | --- | --- |
| N#Cc1ccc(-c2ccc(S(=O)(=O)Nc3cccc(N)n3)cc2)cc1 | 2.3 | – |
| O=C(Nc1cccc(C(=O)N2CCC[C@H]3CCCC[C@@H]32)c1)c1ccccc1 | – | 12 |
